Measured values taken from paper PMC10254235, “Design, Synthesis, and Anti-Cervical Cancer and Reversal of Tumor Multidrug Resistance Activity of Novel Nitrogen-Containing Heterocyclic Chalcone Derivatives” (Molecules, 2023).

Key:
HUVEC cells = assay: In vitro HUVEC inhibitory assay (MTT); format: cell-based; settings: Homo sapiens, 48 h, ± SD
Experimental: (§1) HeLa and SiHa cell lines were obtained from the Procell Life Science Technology Co., Ltd. (Wuhan, China); H8 cell line was obtained from the Shanghai HonSun Biological Technology Co., Ltd. (Shanghai, China); HUVEC cell line was obtained from the Saibaikang (Shanghai) Biotechnology Co., Ltd. (Shanghai, China); HeLa/DDP cell line was obtained from the Guangzhou Jenniobio Biotechnology Co., Ltd. (Guangzhou, China). HeLa, SiHa, H8, and HeLa/DDP cells were cultured in DMEM medium (HyClone). The VEGF of 50 ng/mL was used as the promoter of the VEGFR-2 receptor on HUVEC cell membrane surfaces, and their inhibitory effects on VEGFR-2 were determined. All the mediums were supplemented with 10% FBS (HyClone, GE Healthcare, Australia). Cells were maintained at subconfluency at 37 °C in humidified air containing 5% CO2. The cells were monitored daily and maintained at 80% cell density. All compounds tested were dissolved in DMSO and then diluted by the culture medium before the treatment of cultured cells. Identification reports are available for all types of cell lines involved in this study.
(§2) The cytotoxicity of the target compounds were measured in vitro using the MTT assay. Cells grown in the logarithmic phase were counted and seeded in 96-well cell culture plates (5 × 10^3 cells per well) for 24 h to allow attachment of cells to the wall of the plate. […] Next, 20 μL of 5 mg.mL^−1 MTT solution was added to each well and cultured for 4 h. The old solution was discarded, replaced with 150 μL DMSO solution per well, and shaken for 10 min. The OD value was measured under 490 nm, and the inhibition rate was calculated. The nonlinear regression fitting of the cell growth rate was carried out using SPSS 23.0 software, and the IC50 of the compound was calculated. […] There were 6 compound holes in each group, and the experimental results were presented as the average of 3 experiments. A complete medium containing only cells was used as the blank control, whereas a complete medium without cells was the negative control group. Cisplatin and sorafenib were utilized as the positive control group, and the target compound was the experimental intervention group.
After incubation for 24 h, the cell was collected using centrifugation and washed twice using PBS chilled to 0 °C. Then, the cells were homogenized in RIPA lysis buffer and 1% PMSF, 1% mixed phosphatase inhibitor (Solarbio, Beijing, China). The lysates were incubated on ice for 30 min, intermittently vortexed every 5 min, and centrifuged at 12,000 rpm for 20 min to harvest the supernatants.

HeLa cells [1] = assay: Apoptosis analysis, Annexin V-FITC/PI flow cytometry; format: cell-based, human; settings: 24 h
Experimental: (§3) After incubation, cells were harvested and incubated using […] of Annexin-V/FITC (BD, America) in binding buffer (10 mM HEPES, 140 mM NaCl, and 2.5 mM CaCl2 at pH 7.4) at room temperature for 15 min. The PI solution was then added to the medium for another 10 min incubation. Almost 10,000 events were collected for each sample and analyzed using flow cytometry (BD, LSRFortessa, New York, NY, USA). The procedure for the remaining Western blot was the same as in Section 3.3.3.

HeLa cells [2] = assay: Transwell migration assay; format: cell-based, human; settings: 24 h, control 1205
Experimental: Initially, HeLa (5 × 10^4 cells) were suspended in 200 μL of an FBS-free medium. […] The lower chamber was filled with 600 μL of medium containing 10% FBS. After incubating at 37 °C for 24 h, the cells on the top side of the transwell membrane were removed with a cotton tip. The cells trapped on the bottom side of the membrane were fixed using methanol and stained using 0.1% crystal violet solution for 30 min, respectively.

H8 cells = assay: MTT cytotoxicity assay, normal cervical epithelial H8 cells; format: cell-based, human; settings: Homo sapiens, 48 h, mean ± SD
Experimental: as §1, §2

p-VEGFR-2 [3] = assay: Western blot, VEGFR-2 phosphorylation in HUVEC cells; format: cell-based, human; settings: 24 h, 6f 2, 4, 6 μM, sorafenib 4 μM, versus blank group, p < 0.05
Bax = assay: Western blot, Bax in HeLa cells; format: cell-based, human; settings: HeLa, 2, 4 and 6 μM, 24 h, versus control, p < 0.05
Experimental: (§4) Next, the protein concentrations were determined using a BCA Protein Assay Kit (Solarbio, China). An equal amount of the proteins (12 μg) were separated using 8–12% sodium dodecyl sulfate–polyacrylamide gel electrophoresis (SDS-PAGE) and transferred to nitrocellulose membranes (Amersham Biosciences, Little Chalfont, Buckinghamshire, UK). Then, the membranes were blocked with 5% nonfat dried milk in TBS containing 1% Tween-20 for 2 h at room temperature and were incubated overnight with specific primary antibodies (CST, Boston, MA, USA) at 4 °C. After three washes in TBST, the membranes were incubated with the appropriate HRP-conjugated secondary antibodies at room temperature for 2 h. The blots were developed using enhanced chemiluminescence (Biosharp, Shanghai, China) and were detected using a PE 0723 imager (ProteinSimple, Silicon Valley, CA, USA). Each experiment was performed at least in triplicate and analyzed using Image J software (V1.8.0.112). […]
as §3, with “The PI solution was then added to the medium for another 10 min incubation.” left out, “The procedure for the remaining Western blot was the same as in Section 3.3.3.” left out

p-VEGFR-2 [4] = assay: Western blot, VEGFR-2 phosphorylation in HeLa/DDP cells; format: cell-based, human; settings: 4 and 6 μM, versus blank group, p < 0.05
Experimental: as §4
To reduce the adverse reactions caused by the fixation of drug resistance reversal agents, the concentration that reduces the proliferation rate of tumor cells by less than 10% was selected. Therefore, the inhibitory activity of compound 6f on HeLa/DDP cells was determined in the concentration ranges of 0.25, 0.5, and 1 μM combined with cisplatin. […]

COc1cc(O)c(C(=O)/C=C/c2ccc(CN3CCC(C)CC3)cc2)cc1CN1CCC(O)CC1 [6f, (E)-1-(2-hydroxy-5-((4-hydroxypiperidin-1-yl)methyl)-4-methoxyphenyl)-3-(4-((4-methylpiperidin-1-yl)methyl)phenyl)prop-2-en-1-one]
IC50 (HUVEC cells): 7.14 ± 0.91 µM
proapoptotic rate (HeLa cells [1]; 2 μM): 13.4%
proapoptotic rate (HeLa cells [1]; 4 μM): 20.7%
proapoptotic rate (HeLa cells [1]; 6 μM): 34.6%
number of migrating cells (HeLa cells [2]; 2 μM): 372
number of migrating cells (HeLa cells [2]; 4 μM): 132
number of migrating cells (HeLa cells [2]; 6 μM): 71
IC50 (H8 cells): 30.1 ± 2.51 µM
phosphorylation of VEGFR-2 in HUVEC cells (Western blot) (p-VEGFR-2 [3]): significantly inhibited the phosphorylation of VEGFR-2
expression of Bax (Western blot) (Bax): significantly upregulated the expression of Bax
phosphorylation of VEGFR-2 in HeLa/DDP cells (Western blot) (p-VEGFR-2 [4]): noteworthy ability to impede the phosphorylation of VEGFR-2
